Measured values reported in US9221832B2, “Heterocyclic amide derivatives as P2X7 receptor antagonists” (ACTELION PHARMACEUTICALS LTD., priority 2011, dated 2015).

What follows are compounds tested against human recombinant P2X7 receptor (Homo sapiens (Human), UniProt Q99572) (assay: YO-PRO assay: P2X7 receptor antagonistic activity). Conditions: HEK cells expressing human P2X7.
Format: cell-based
Procedure: The P2X7 receptor antagonistic activity of the compounds of formula (I) is determined in accordance with the following experimental method.
Cell Line Generation and YO-PRO Assay
Cell line generation was performed in general according to established molecular cloning protocols. Specifically, RNA was extracted from human whole blood using the Qiagen RNeasy kit (Qiagen, CH) according to the manufacturer's instructions. Subsequently cDNA was made (Superscript II, Invitrogen AG, CH) and the human P2X7 gene (genbank ref. BC011913) was amplified with the following primers: […] and […]. The amplified sequence was subsequently ligated into a pcDNA3.1 (+) NotI, NheI digested plasmid. […] Following a 24 h exposure to DNA, cells were trypsinized and re-seeded at low density in the presence of 250 μg Geneticin. Geneticin resistant cells were then selected during two consecutive rounds of cloning by serial limiting dilution with visual inspection. Individual clones were screened for P2X7 expression by applying ATP and recording the resultant uptake of YO-PRO1. Specific cell clones were chosen based on RNA and protein expression. HEK cells stably expressing P2X7 were used to screen drugs using the YO-PRO1 assay. Cells were grown to confluency in adherent culture at 37° C. in a humidified 5% CO2 incubator (split 1/5 every 3-4 days with DMEM, 10% FCS, 1% Penicillin/Streptomycin, 250 μg/ml Geneticin). Adherent cells were detached by incubation with Trypsine (1 ml per 165 cm^2 dish) for 2 minutes, then washed off with 10 ml PBS (without Mg^2+ and Ca^2+), and resuspended in DMEM, 10% FCS, 1% Penicillin/Streptomycin, no Geneticin. […] During this time period, four time points were taken. Each time point comprised the average of several measurements made within a few seconds. […] The FLIPR tetra was equipped with Molecular Devices Screen Works system control software to define and run experimental protocols. […] For IC50 measurements the maximum intensity is plotted against the concentration of compound to determine IC50 values.

human recombinant P2X7 receptor, sequence (Q99572 whole entry): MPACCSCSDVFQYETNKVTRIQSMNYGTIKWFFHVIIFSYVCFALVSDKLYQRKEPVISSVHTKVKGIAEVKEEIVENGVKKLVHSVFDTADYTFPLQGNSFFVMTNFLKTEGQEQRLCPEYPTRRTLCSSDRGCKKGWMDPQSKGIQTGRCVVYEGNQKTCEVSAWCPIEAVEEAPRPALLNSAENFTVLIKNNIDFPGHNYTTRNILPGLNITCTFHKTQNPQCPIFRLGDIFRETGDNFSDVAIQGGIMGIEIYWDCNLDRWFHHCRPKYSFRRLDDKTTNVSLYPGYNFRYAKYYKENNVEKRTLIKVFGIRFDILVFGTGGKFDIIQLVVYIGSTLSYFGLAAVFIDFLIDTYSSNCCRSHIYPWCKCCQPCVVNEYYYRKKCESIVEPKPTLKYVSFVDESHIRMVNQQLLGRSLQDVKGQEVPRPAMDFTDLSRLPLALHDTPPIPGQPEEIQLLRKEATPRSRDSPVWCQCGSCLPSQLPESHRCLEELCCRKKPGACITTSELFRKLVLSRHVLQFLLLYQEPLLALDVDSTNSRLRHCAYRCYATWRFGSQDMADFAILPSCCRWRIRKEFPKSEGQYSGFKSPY

Compound | IC50
Cc1ccc(OCC(=O)NC2COc3ncccc32)c(C)c1 (racemic) [Example 142, rac-N-(2,3-Dihydro-furo[2,3-b]pyridin-3-yl)-2-(2,4-dimethyl-phenoxy)-acetamide] | > 9.95 µM
O=C(Cc1ccc(Cl)cc1Cl)NC1COc2c1ccnc2Cl (racemic) [Example 106, rac-N-(7-Chloro-2,3-dihydro-furo[2,3-c]pyridin-3-yl)-2-(2,4-dichloro-phenyl)-acetamide] | 0.052 µM
COc1ccnc2c1C(NC(=O)Cc1cccc(C(F)(F)F)c1Cl)CO2 (racemic) [Example 139, rac-2-(2-Chloro-3-trifluoromethyl-phenyl)-N-(4-methoxy-2,3-dihydro-furo[2,3-b]pyridin-3-yl)-acetamide] | 0.272 µM
O=C(Cc1cccc(C(F)(F)F)c1Cl)NC1COc2nccc(C(F)(F)F)c21 (racemic) [Example 152, rac-2-(2-Chloro-3-trifluoromethyl-phenyl)-N-(4-trifluoromethyl-2,3-dihydro-furo[2,3-b]pyridin-3-yl)-acetamide] | 0.861 µM
O=C(Cc1c(C(F)(F)F)ccc(Cl)c1Cl)NC1COc2ncccc21 (racemic) [Example 71, rac-2-(2,3-Dichloro-6-trifluoromethyl-phenyl)-N-(2,3-dihydro-furo[2,3-b]pyridin-3-yl)-acetamide] | 3.23 µM
O=C(Cc1cccc(C(F)(F)F)c1F)NC1COc2ncccc21 (racemic) [Example 90, rac-N-(2,3-Dihydro-furo[2,3-b]pyridin-3-yl)-2-(2-fluoro-3-trifluoromethyl-phenyl)-acetamide] | 0.092 µM
O=C(Cc1cccc(C(F)F)c1Cl)NC1COc2ncccc21 (racemic) [Example 114, rac-2-(2-Chloro-3-difluoromethyl-phenyl)-N-(2,3-dihydro-furo[2,3-b]pyridin-3-yl)-acetamide] | 0.0076 µM
Cc1cc(Cl)cc(Cl)c1CC(=O)NC1CCOc2ncccc21 (single isomer, unassigned) [Example 28, 2-(2,4-Dichloro-6-methyl-phenyl)-N-(3,4-dihydro-2H-pyrano[2,3-b]pyridin-4-yl)-acetamide] | 0.029 µM
Cc1cc(Cl)cc(Cl)c1CC(=O)NC1COc2cnccc21 (single isomer, unassigned) [Example 102, 2-(2,4-Dichloro-6-methyl-phenyl)-N-2,3-dihydro-furo[2,3-c]pyridin-3-yl-acetamide] | 0.0022 µM
Cc1ccccc1CC(=O)NC1COc2ncccc21 (racemic) [Example 11, rac-N-(2,3-Dihydro-furo[2,3-b]pyridin-3-yl)-2-o-tolyl-acetamide] | 1.31 µM
COc1nccc2c1OCC2NC(=O)Cc1ccc(Cl)cc1Cl (racemic) [Example 105, rac-2-(2,4-Dichloro-phenyl)-N-(7-methoxy-2,3-dihydro-furo[2,3-c]pyridin-3-yl)-acetamide] | 0.248 µM
Cc1cc(Cl)cc(Cl)c1CC(=O)NC1COc2nccc(C(F)(F)F)c21 (racemic) [Example 151, rac-2-(2,4-Dichloro-6-methyl-phenyl)-N-(4-trifluoromethyl-2,3-dihydro-furo[2,3-b]pyridin-3-yl)-acetamide] | 6.69 µM
O=C(Cc1ccc(C(F)(F)F)cc1)NC1COc2ncccc21 (racemic) [Example 16, rac-N-(2,3-Dihydro-furo[2,3-b]pyridin-3-yl)-2-(4-trifluoromethyl-phenyl)-acetamide] | 1.17 µM
N#Cc1cccc(CC(=O)NC2COc3ncccc32)c1Cl (single isomer, unassigned) [Example 99, 2-(2-Chloro-3-cyano-phenyl)-N-2,3-dihydro-furo[2,3-b]pyridin-3-yl-acetamide] | 0.04 µM
Cc1ccnc2c1C(NC(=O)Cc1cccc(C(F)(F)F)c1Cl)CO2 (racemic) [Example 137, rac-2-(2-Chloro-3-trifluoromethyl-phenyl)-N-(4-methyl-2,3-dihydro-furo[2,3-b]pyridin-3-yl)-acetamide] | 0.037 µM
O=C(Cc1cccc(Cl)c1C(F)(F)F)NC1COc2ncccc21 (racemic) [Example 97, rac-2-(3-Chloro-2-trifluoromethyl-phenyl)-N-(2,3-dihydro-furo[2,3-b]pyridin-3-yl)-acetamide] | 0.015 µM
N#Cc1c(Cl)ccc(CC(=O)NC2COc3ncccc32)c1Cl (racemic) [Example 112, rac-2-(2,4-Dichloro-3-cyano-phenyl)-N-(2,3-dihydro-furo[2,3-b]pyridin-3-yl)-acetamide] | 0.219 µM
N#Cc1cccc(CC(=O)NC2COc3ncccc32)c1Cl (single isomer, unassigned) [Example 98, 2-(2-Chloro-3-cyano-phenyl)-N-2,3-dihydro-furo[2,3-b]pyridin-3-yl-acetamide] | 0.029 µM

Compound | IC50
O=C(COc1ccc(Cl)cc1Cl)NC1COc2ncccc21 (racemic) [Example 140, rac-2-(2,4-Dichloro-phenoxy)-N-(2,3-dihydro-furo[2,3-b]pyridin-3-yl)-acetamide] | > 8.41 µM
Cc1ccc(OCC(=O)NC2CCOc3ncccc32)c(C)n1 (racemic) [Example 61, rac-N-(3,4-Dihydro-2H-pyrano[2,3-b]pyridin-4-yl)-2-(2,6-dimethyl-pyridin-3-yloxy)-acetamide] | 0.814 µM
N#Cc1ccc(CC(=O)NC2COc3ncccc32)c(Cl)c1 (racemic) [Example 96, rac-2-(2-Chloro-4-cyano-phenyl)-N-(2,3-dihydro-furo[2,3-b]pyridin-3-yl)-acetamide] | 0.123 µM
O=C(NC1COc2ncccc21)C(CO)c1ccc(Cl)cc1Cl (centres unmarked) [Example 79, 2-(2,4-Dichloro-phenyl)-N-2,3-dihydro-furo[2,3-b]pyridin-3-yl-3-hydroxy-propionamide] | 0.021 µM
Cc1cc(CC(=O)NC2CCOc3ncccc32)on1 (racemic) [Example 62, rac-N-(3,4-Dihydro-2H-pyrano[2,3-b]pyridin-4-yl)-2-(3-methyl-isoxazol-5-yl)-acetamide] | 2.08 µM
CC(C(=O)NC1COc2ncccc21)c1ccc(Cl)cc1Cl (single isomer, unassigned) [Example 92, 2-(2,4-Dichloro-phenyl)-N-2,3-dihydro-furo[2,3-b]pyridin-3-yl-propionamide] | 0.009 µM
O=C(CCCc1ccc(F)cc1)NC1COc2ncccc21 (racemic) [Example 82, rac-N-(2,3-Dihydro-furo[2,3-b]pyridin-3-yl)-4-(4-fluoro-phenyl)-butyramide] | 2.03 µM
Cc1cc(Cl)cc(Cl)c1CC(=O)NC1COc2ncccc21 (racemic) [Example 5, rac-2-(2,4-Dichloro-6-methyl-phenyl)-N-(2,3-dihydro-furo[2,3-b]pyridin-3-yl)-acetamide] | 0.012 µM
O=C(NC1COc2ncccc21)C1CCc2cc(Cl)cc(Cl)c21 (single isomer, unassigned) [Example 147, 5,7-dichloro-N-(2,3-dihydrofuro[2,3-b]pyridin-3-yl)-2,3-dihydro-1H-indene-1-carboxamide] | 0.04 µM
Cc1cc(Cl)cc(Cl)c1CC(=O)NC1COc2cnccc21 (single isomer, unassigned) [Example 101, 2-(2,4-Dichloro-6-methyl-phenyl)-N-2,3-dihydro-furo[2,3-c]pyridin-3-yl-acetamide] | 0.598 µM
N#Cc1cccc(CC(=O)NC2COc3ncccc32)c1Cl (racemic) [Example 75, rac-2-(2-Chloro-3-cyano-phenyl)-N-(2,3-dihydro-furo[2,3-b]pyridin-3-yl)-acetamide] | 0.022 µM
O=C(Cc1cccc(C(F)(F)F)c1Cl)NC1COc2cncc(C3CC3)c21 (racemic) [Example 132, rac-2-(2-Chloro-3-trifluoromethyl-phenyl)-N-(4-cyclopropyl-2,3-dihydro-furo[2,3-c]pyridin-3-yl)-acetamide] | 0.506 µM
O=C(CCc1ccc(Cl)cc1Cl)NC1CCOc2ncccc21 (racemic) [Example 65, rac-3-(2,4-Dichloro-phenyl)-N-(3,4-dihydro-2H-pyrano[2,3-b]pyridin-4-yl)-propionamide] | 3.01 µM
O=C(Cc1ccc(Cl)c(Cl)c1)NC1COc2ncccc21 (racemic) [Example 21, rac-2-(3,4-Dichloro-phenyl)-N-(2,3-dihydro-furo[2,3-b]pyridin-3-yl)-acetamide] | 0.473 µM
O=C(Cc1c(F)cccc1Cl)NC1CCOc2ncccc21 (racemic) [Example 50, rac-2-(2-Chloro-6-fluoro-phenyl)-N-(3,4-dihydro-2H-pyrano[2,3-b]pyridin-4-yl)-acetamide] | 2.63 µM
O=C(Cc1ccccc1Cl)NC1CCOc2ncccc21 (racemic) [Example 44, rac-2-(2-Chloro-phenyl)-N-(3,4-dihydro-2H-pyrano[2,3-b]pyridin-4-yl)-acetamide] | 2 µM
N#Cc1ccc(CC(=O)NC2CCOc3ncccc32)cc1 (racemic) [Example 45, rac-2-(4-Cyano-phenyl)-N-(3,4-dihydro-2H-pyrano[2,3-b]pyridin-4-yl)-acetamide] | > 6.46 µM
